From US12201628B2, “Neuronal modulation” (priority 2013, dated 2025)
Entries after “also recorded” stand apart in the source; their conditions may differ.

What was measured:
GFP-expressing E. coli = assay: In-vivo E. coli phagocytosis; parameters: species or system mice; conditions: E. coli injected 24 h after VTA activation, analysed 2 h later; vs controls
Experimental: Virus-injected mice were IP treated with CNO. Twenty four hours later, GFP-expressing E. coli (MG165K12; 8×10^8 CFU/mouse) were injected IP. After two hours, the peritoneal lymphocytes were collected by peritoneal lavage. For peritoneal lavage, the mice were sacrificed and their skin was cleaned with 70% ethanol. Then, 5 ml ice-cold PBS containing 1% fetal bovine serum were injected into the peritoneum, followed by gentle massage to allow distribution of the lavage fluid throughout the peritoneal cavity. The fluid was then collected using a 5 ml syringe attached to a 21-gauge needle, and cells were then washed twice in FACS staining buffer (PBS containing 1% bovine serum albumin and 0.05% sodium azide). In order to evaluate the degree of monocyte phagocytosis of the fluorescent bacteria, peritoneal lavage cells were stained with PerCP-conjugated anti-CD11b antibody (M1/70, Biolegend). All samples were analyzed on an LSRFortessa cell analyzer (BD Biosciences, NJ). […]
To determine the effects of VTA activation on antibacterial activity in vivo, the VTA-dopaminergic neurons were activated, and 24 h later injected the mice with GFP-expressing E. coli. Two hours later, lymphocytes were extracted from the peritoneal cavity of the mice and determined by flow cytometry GFP levels; only cells that phagocytized the E. coli could express GFP.

[1] = test system: immune cell clusters (CD45+ cells); assay: CyTOF mass cytometry of blood and spleen with Citrus analysis; assay type: in vivo, mice; conditions: 24 h after CNO, VTA-activated vs control
Experimental: Two weeks after completion of the behavioral testing, mice were injected intraperitoneally with CNO and anesthetized 24 hours thereafter. Spleens and blood samples were collected. Spleens were dissociated into single-cell suspensions in 2% fetal bovine serum (Biological Industries, IL) and mesh filtered to remove clumps and debris. Blood samples were collected into heparin-coated sterile test tubes. Both the blood and the spleen cell suspensions were lysed with red blood cell lysis buffer (BD Biosciences, NJ, US). Cells ([…]) from each tissue were stained, for 1 hour at room temperature, with a mixture of metal tagged antibodies recognizing CD45, CCR3, CD80, GR1, CD86, CD19, CD4, CD45R, CD152, CD138, CD8, NK1.1, CD27, CD206, CD25, CD14, CD11c, CD49b, CD34, CD69, CD123, TCRβ, CCR7, CD28, CD115, CD133, TLR4, CD117, CD79b, CD62L, CD44, CD45RA, CD1d, IAIE, CD5, and CD11b. All antibodies were conjugated using the MAXPAR reagent (Fluidigm Inc.), with Rhodium and Iridium intercalators used to identify live/dead cells. Cells were washed twice with PBS, fixed in 1.6% formaldehyde (Sigma-Aldrich, St. Louis, MO) for 1 hour, washed again in ultrapure H2O and subjected to CyTOF mass cytometry analysis on a CyTOF I machine, with cell events acquired at approximately 500 events per second. In addition, each sample was spiked with internal metal isotope bead standards, which then was used for sample normalization by CyTOF software (Fluidigm). Acquired data was then uploaded to a Cytobank web server (Cytobank Inc.) for data processing and gating out of dead cells and normalization beads. Data was transformed using an arc sin h (X/5) transformation.
Differences in cell subset abundance and functional marker expression between VTA activated and control mice, were identified using the Citrus algorithm, a clustering and differential detection algorithm especially suited for high dimensional cytometry data (2). Twenty FCS files of normalized, live cell/no beads samples (Five VTA activated mice spleens, five VTA activated mice blood samples, 5 control mice spleen and five control mice blood) were each randomly sampled for 40,000 single cell events each. Briefly, Citrus performs three steps to identify cell subsets and differences between groups: First, collected single cell events are pooled together and iteratively hierarchically clustered using a subset of the measured channels for clustering (See Table 1 for a list of 23 clustering markers), yielding overlapping clusters with the ultimate cluster being one encompassing all sampled events. Second, the pooled dataset is split back into its constituting samples and the relative abundance of cells in each cluster is computed, as well as the median values of each functional marker (see Table 1 for a list of functional markers). Only cell clusters whose total abundance in one or more of the measured samples was greater than 1% of the total measured sample was retained for downstream analysis, yielding a total of 151 clusters. Third, the Citrus implementation of the SAM algorithm was applied, to identify, separately, differences in cell subset abundances and medians between VTA activated and control mouse samples at a predetermined FDR of 5%. Beyond this, an additional criteria for calling differences was employed, by performing a Mann-Whitney non-parametric test of significance on each cluster found to be different between VTA activated and control and requiring that it meet a p-value <0.05 criteria. Manual inspection of Citrus output was used to identify the closest known gross-cell type, matching the 23 combination clustering marker panel. A similar procedure analysis procedure was performed for 6-OHDA samples versus control. […]

[2] = test system: solid melanoma (B16) tumor and Lewis lung carcinoma (LLC); assay: Tumor growth after VTA dopaminergic neuron activation; assay type: in vivo, mice
Experimental: For the expression of DREADDs, injected Cre-dependent adeno-associated virus (AAV) vector expressing DREADDs fused with red fluorescent protein mCherry, was injected into the VTA of tyrosine hydroxylase (TH)-Cre transgenic mice.
Then the mice were challenged with 500×10^3 LLC cells (Lewis Lung carcinoma Cells) or 200×10^3 B16 melanoma tumor cells (gently injected subcutaneously into the middle right flank of each animal).
28 days from the tumor cells injection a group of the tumor-bearing animals were euthanized to dissect the tumor tissue and check for metastasis (FIG. 12). The spleen bone marrow and tumors were isolated to characterize the changes in immune cells. The CyTOF was used to analyze the immune system as well as FACS analysis.

## C[N+]1([O-])CCN(C2=Nc3cc(Cl)ccc3Nc3ccccc32)CC1 [CNO, clozapine-N-oxide]
GFP-expressing E. coli
  number of CD11b+GFP+ cells in the peritoneum: increased number of CD11b+GFP+ cells
[1]; blood and spleen
  abundance of B-cell subsets: decreased in abundance
[1]; blood
  CD1d levels on APC subsets (granulocytes, NK cells, monocyte/macrophages): reduced
[1]; spleen
  CD25, CD69 and CD206 expression: upregulation
  CD80 and CD86 expression: Upregulation
  CD1d expression: downregulation
[2]; CNO daily, two sessions of three days, Gq group vs control
  tumor weight / size (B16 melanoma): Reduced tumor size
[2]; VTA-activated vs control mice, B16 melanoma and LLC
  reduction in tumor size: over 40%
[2]; VTA-activated vs control mice, spleen, bone marrow and tumor
  abundance of CD11b+Gr1+ MDSCs: significant reduction in the abundance; also recorded: reduced abundance of MDSCs
